In publication PMC12153338, “Resistance to oxyimino-cephalosporins conferred by an alternative mechanism of hydrolysis by the Acinetobacter-derived cephalosporinase-33 (ADC-33), a class C β-lactamase present in carbapenem-resistant Acinetobacter baumannii (CRAb)” (mBio, 2025):
Converted amounts (≈) assume the structure as drawn.

Columns and labels:
[1] = tested on: ADC-218 in DH10B Escherichia coli; test: MIC by broth microdilution, ADC-218 in DH10B E. coli; type: cell-based; conditions: DH10B E. coli expressing ADC-218 (Adup) from pBCSK−, FDC in iron-depleted cation-adjusted MH broth, mode of triplicate
Experimental: (§1) Susceptibility testing to standard antibiotics was performed by broth microdilution according to 2024 Clinical and Laboratory Standards Institute (CLSI) guidelines ([38]). MICs for FDC were done in iron-depleted cation-adjusted Mueller-Hinton (MH) broth according to CLSI methods. All MICs were interpreted according to the 2024 CLSI guidelines ([38]). MICs are done in triplicate, and the mode MIC value is reported.
(§2) blaADC-7 pBCSK− was cloned and expressed in E. coli DH10B cells as previously described for MIC determinations ([3]). The pBCSK-non-inducible phagemid vector has a chloramphenicol resistance gene used to aid selection. All other blaADC variants were synthesized by GenScript according to the blaADC-7 pBCSK− strategy, cloning into the XbaI/BamHI sites of the pBCSK− vector ([5]).

[2] = target: T1, ADC-33 (Acinetobacter baumannii, UniProt A7Y407); test: Timed electrospray ionization mass spectrometry of acylated adducts, ADC-33; type: binding; conditions: ADC-33, incubation 30 s–1 h; enzyme:substrate 1:25
Experimental: (§3) β-Lactamase (5 µg) was incubated with substrate at a molar ratio of 1:25 (FDC, CAZ, meropenem [MEM]) in sterile 10 mM PBS, pH 7.4, for a total reaction volume of 20 µL (t = 30 s, 1 min, 15 min, 30 min, 1 h, 2 h, and 24 h). Reactions were quenched with 1% acetonitrile and 0.1% formic acid. Samples were analyzed using Q-TOF Waters Synapt-G2-Si and a Waters Acquity ultrapressure liquid chromatography BEH C18 column (1.7 µm […]; 2.1 × 50 mm). MassLynx v.4.1 was used to deconvolute protein peaks. The tune settings for each data run were as follows: capillary voltage at 3.5 kV, sampling cone at 35, source offset at 35, source temperature 100°C, desolvation temperature 500°C, cone gas at 100 L/h, desolvation gas at 800 L/h, and nebulizer bar at 6.0. Mobile phase A was 0.1% formic acid-water. Mobile phase B was 0.1% formic acid-acetonitrile. The mass accuracy for this system is ±5 Da. Mass spectrometry experiments were performed once over a range of time points.

[3] = tested on: ADC-172 in DH10B Escherichia coli; test: MIC by broth microdilution, ADC-172 in DH10B E. coli; type: cell-based; conditions: Escherichia coli; DH10B E. coli expressing ADC-172 (Adup) from pBCSK−; FDC in iron-depleted cation-adjusted MH broth; mode of triplicate; read-out: MIC
Experimental: as §1, §2

[4] = target: T1, ADC-33; conditions: hydrolysis by ADC-33; previously determined; cited from earlier work
[5] = tested on: ADC variants in DH10B Escherichia coli; test: MIC, statements across ADC variants in E. coli; type: cell-based
Experimental: as §1, §2

[6] = tested on: ADC-217 in DH10B Escherichia coli; test: MIC by broth microdilution, ADC-217 in DH10B E. coli; type: cell-based; conditions: DH10B E. coli expressing ADC-217 (non-Adup) from pBCSK−, FDC in iron-depleted cation-adjusted MH broth, mode of triplicate
Experimental: as §1, §2

[7] = target: T1, ADC-33; test: Steady-state hydrolysis kinetics, ADC-33; type: biochemical
Experimental: Steady-state kinetic parameters were determined by combining pure enzyme with antibiotic substrates in 50 mM NaH2PO4, pH 7.4, at room temperature. Changes in absorbance were measured on the Cary 60 UV−Vis spectrophotometer (Agilent Technologies) and converted to velocity using the change in extinction coefficient specific to nitrocefin (NCF) (ε482 = 17,400 M^−1·cm^−1), CAZ (ε260 8,660 M^−1·cm^−1), and cefiderocol (ε259 9,430 M^−1·cm^−1). The concentration of enzyme ranged from 0.1 to 1.0 µM, and all kinetic experiments were performed at least in triplicate. Initial velocities were fitted to the Michaelis-Menten equation, yielding kcat and KM values. The standard error for kcat/KM values was generated by factoring in the larger of the proportional standard errors for the individual kcat value and the KM value. For ADC/substrate combinations in which the KM was too large to accurately determine both kcat and KM values, the initial velocities at kcat/KM values were calculated from linear fits of vo in low [S] ranges (<0.08 * KM).

[8] = target: ADC-217 (Acinetobacter baumannii, UniProt Q6DRA1, V286E, form not given); test: Competition kinetics with nitrocefin (Ki), ADC-217; type: biochemical; conditions: 3 min pre-incubation, Cheng-Prusoff corrected
Experimental: (§4) For inhibition kinetics, utilizing NCF as a colorimetric substrate of ADCs, the inhibition constant (Ki) of CAZ and FDC with ADCs was determined using competition kinetics as previously described ([5]). After a 3 min pre-incubation of the enzyme (2 nM) with increasing concentration of the inhibitor, measurements of the initial velocities were performed with the addition of 100–200 µM NCF (twofold of the experimentally determined KM value). To determine the average velocities (v0), data from three experiments were fit to the followingequation: […]
(§5) where vu represents the NCF uninhibited velocity and IC50 represents the inhibitor concentration that results in a 50% reduction of vu. The Ki value was corrected for the NCF affinity (KM values for each ADC) with the Cheng-Prusoff ([5]) equation: […]
(§6) The standard error for Ki values was generated by factoring in the larger of the proportional standard errors for the individual IC50 value and the KM -NCF value.

[9] = tested on: ADC-219 in DH10B Escherichia coli; test: MIC by broth microdilution, ADC-219 in DH10B E. coli; type: cell-based; conditions: DH10B E. coli expressing ADC-219 (Adup) from pBCSK−, FDC in iron-depleted cation-adjusted MH broth, mode of triplicate
Experimental: as §1, §2

[10] = target: T2, ADC-30 (Acinetobacter baumannii, UniProt A7XM81); test: Timed electrospray ionization mass spectrometry of acylated adducts, ADC-30; type: binding; conditions: ADC-30, +468 Da adduct, at 1 h; enzyme:substrate 1:25
Experimental: as §3

[11] = tested on: DH10B Escherichia coli pBCSK− no insert; test: MIC by broth microdilution, DH10B E. coli with pBCSK− no insert; type: cell-based; conditions: DH10B E. coli with pBCSK− no insert (control strain), FDC in iron-depleted cation-adjusted MH broth
Experimental: as §1, §2

[12] = target: ADC-7 (Acinetobacter baumannii, UniProt Q6DRA1); test: Competition kinetics with nitrocefin (Ki), ADC-7; type: biochemical; conditions: 3 min pre-incubation, Cheng-Prusoff corrected
Experimental: as §4, §5, §6

[13] = tested on: ADC-143 in DH10B Escherichia coli; test: MIC by broth microdilution, ADC-143 in DH10B E. coli; type: cell-based; conditions: DH10B E. coli expressing ADC-143 (non-Adup) from pBCSK−, FDC in iron-depleted cation-adjusted MH broth, mode of triplicate
Experimental: as §1, §2

[14] = target: T2, ADC-30; test: Competition kinetics with nitrocefin (Ki), ADC-30; type: biochemical; conditions: 3 min pre-incubation, Cheng-Prusoff corrected
Experimental: as §4, §5, §6

[15] = target: ADC-143 (Acinetobacter baumannii, UniProt Q6DRA1, Q144K, form not given); test: Competition kinetics with nitrocefin (Ki), ADC-143; type: biochemical; conditions: 3 min pre-incubation, Cheng-Prusoff corrected
Experimental: as §4, §5, §6

CC(C)(O/N=C(\C(=O)N[C@@H]1C(=O)N2C(C(=O)[O-])=C(C[n+]3ccccc3)CS[C@H]12)c1csc(N)n1)C(=O)O [CAZ, ceftazidime]
MIC [1]: 2050 µg/mL (≈ 3750 µM) | formation of stable acyl-enzyme adduct [2]: did not form a stable acyl-enzyme adduct | MIC [3]: 1020 µg/mL (≈ 1870 µM) | kcat [4]: 3.71 s⁻¹ | MIC [5]: ≥ 1020 µg/mL | MIC [6]: 128 µg/mL (≈ 234 µM) | fold higher kcat/KM for CAZ versus FDC [7]: ~ 10 fold | Ki [8]: 260 ± 14 nM | MIC [9]: 64 µg/mL (≈ 117 µM) | percentage of acylated adduct [10]: 20% | MIC [11]: 0.25 µg/mL (≈ 0.457 µM) | Ki [12]: 2100 ± 250 nM | MIC [13]: 256 µg/mL (≈ 468 µM) | Ki [14]: 3230 ± 310 nM | Ki [15]: 47800 ± 3340 nM
